The values below come from patent publication US7772252B2, “Heterocyclic substituted carbonyl derivatives and their use as dopamine D3 receptor ligands” (Aventis Pharmaceuticals Inc., priority 2001, dated 2010).

Where two headings read alike, the source gives them in different places.

In the experiment the target is T1, cloned human dopamine D3 receptors (Homo sapiens, UniProt P35462).
T1 construct: expressed in transfected cells; membrane homogenate
Briefly: [N-Methyl-3H]Spiroperidol binding to cloned human dopamine D3 receptors. The conditions noted are these: read-out: d3Ki. In outline:
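Radioligand displacement with [N-methyl-3H]spiroperidol was run on membranes from a high-expressing CHO clone carrying human D3. Membranes were prepared in 10% DMSO and stored at −80° C.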

T1 sequence (P35462 whole entry): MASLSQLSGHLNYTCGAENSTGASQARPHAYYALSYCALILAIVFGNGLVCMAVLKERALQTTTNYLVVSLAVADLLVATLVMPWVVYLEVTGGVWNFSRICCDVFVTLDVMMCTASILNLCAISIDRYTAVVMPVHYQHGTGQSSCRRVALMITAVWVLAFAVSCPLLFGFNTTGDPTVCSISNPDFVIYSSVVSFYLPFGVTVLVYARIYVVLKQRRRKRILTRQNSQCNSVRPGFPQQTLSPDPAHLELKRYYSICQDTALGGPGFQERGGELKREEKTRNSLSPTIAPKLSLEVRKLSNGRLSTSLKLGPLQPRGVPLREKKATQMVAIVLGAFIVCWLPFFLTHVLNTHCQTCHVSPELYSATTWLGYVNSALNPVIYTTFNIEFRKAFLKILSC

With `CCN(C(=O)CCCN1CCN(c2csc3cc(F)ccc23)CC1)C1CCCCC1` [compound 826849], the Ki worked out at 54.2 nM.
On the same count and under the same terms, next, `O=C(CCCN1CCN(c2csc3cc(F)ccc23)CC1)N(CCO)C1CCCCC1` [compound 826850]: 18.8 nM; `CC1CCCC(NC(=O)CCCN2CCN(c3csc4cc(C(F)(F)F)ccc34)CC2)C1` (racemic) [compound 826807]: 43 nM.
For `CC1CCCN(C(=O)CCCN2CCN(c3csc4cc(C(F)(F)F)ccc34)CC2)C1` (stereo not drawn) [compound 826815], the Ki (Table 2, D3 receptor binding) was 31.7 nM.
With `CC1CC(C)CN(C(=O)CCCN2CCN(c3csc4cc(F)ccc34)CC2)C1` (stereo not drawn) [compound 826858], the Ki came to 3.71 nM.
The same measure, in the same setting: the same measure for `CC1CCCN1C(=O)CCCN1CCN(c2csc3cc(C(F)(F)F)ccc23)CC1` (stereo not drawn) [compound 826822]: 2.79 nM; for `CC1CCCN(C(=O)CCCN2CCN(c3csc4cc(F)ccc34)CC2)C1` (stereo not drawn) [compound 826855]: 0.58 nM; for `O=C(CCCN1CCN(c2csc3cc(C(F)(F)F)ccc23)CC1)N1CCCC1` [compound 826819]: 11.6 nM.
Still for that read-out and setting: next, `CC1CCCCN1C(=O)CCCN1CCN(c2csc3cc(F)ccc23)CC1` (stereo not drawn) [compound 826853]: 0.128 nM.
As to `O=C(CCCN1CCN(c2csc3cc(F)ccc23)CC1)N1CCC(O)CC1` [compound 826852], the Ki came to 3.54 nM.
As to `CC1CC(C)CN(C(=O)CCCN2CCN(c3csc4cc(C(F)(F)F)ccc34)CC2)C1` (stereo not drawn) [compound 826818], the Ki was found to be 29.3 nM.
Still for that read-out and setting: the same measure for `C[C@H]1CC[C@H](NC(=O)CCCN2CCN(c3csc4cc(F)ccc34)CC2)CC1` [compound 826844]: 0.591 nM; for `CN(C)C1CCN(C(=O)CCCN2CCN(c3csc4cc(C(F)(F)F)ccc34)CC2)C1` (stereo not drawn) [compound 826823]: 19 nM.
On the same count and under the same terms, the same measure for `CC1CCN(C(=O)CCCN2CCN(c3csc4cc(F)ccc34)CC2)CC1` [compound 826854]: 0.116 nM.
On the same count and under the same terms, next, `CC[C@H]1CC[C@H](NC(=O)CCCN2CCN(c3csc4cc(F)ccc34)CC2)CC1` [compound 826846]: 17.6 nM.
Regarding `CN(C(=O)CCCN1CCN(c2csc3cc(F)ccc23)CC1)C1CCCCC1` [compound 826848], the Ki stood at 4.35 nM.
Same read-out and setting: the same measure for `O=C(CCCN1CCN(c2csc3cc(C(F)(F)F)ccc23)CC1)N(CCO)C1CCCCC1` [compound 826810]: 86.7 nM.
For `CC1CCCCN1C(=O)CCCN1CCN(c2csc3cc(C(F)(F)F)ccc23)CC1` (stereo not drawn) [compound 826813], the Ki (Table 2, D3 receptor binding) came out at 5.16 nM.
In the case of `O=C(CCCN1CCN(c2csc3cc(F)ccc23)CC1)N1CCC(N2CCCC2)CC1` [compound 826856], the Ki is 1.8 nM.
On the same count and under the same terms, the same measure for `CC1CCCC(NC(=O)CCCN2CCN(c3csc4cc(F)ccc34)CC2)C1` (stereo not drawn) [compound 826847]: 1.01 nM; for `O=C(CCCN1CCN(c2csc3cc(C(F)(F)F)ccc23)CC1)N1CCC(N2CCCC2)CC1` [compound 826816]: 26.3 nM; for `CCOC(=O)C1CCN(C(=O)CCCN2CCN(c3csc4cc(F)ccc34)CC2)CC1` [compound 826851]: 2.77 nM.
Take `CC1CCCN1C(=O)CCCN1CCN(c2csc3cc(F)ccc23)CC1` (stereo not drawn) [compound 826862]: the Ki is 0.951 nM.
For `CCOC(=O)[C@H]1CC[C@H](NC(=O)CCCN2CCN(c3csc4cc(F)ccc34)CC2)CC1` [compound 826845], the Ki came to 4.42 nM.
Regarding `O=C(CCCN1CCN(c2csc3cc(F)ccc23)CC1)NC1CCCC1` (racemic) [compound 826860], the Ki stood at 3.48 nM.
The same measure, in the same setting: next, `O=C(CCCN1CCN(c2csc3cc(F)ccc23)CC1)NC1CCCCC1` [compound 826861]: 2.89 nM; `O=C(CCCN1CCN(c2csc3cc(C(F)(F)F)ccc23)CC1)NC1CCCCC1` [compound 826821]: 70.1 nM.
With `O=C(CCCN1CCN(c2csc3cc(C(F)(F)F)ccc23)CC1)N1CCC(O)CC1` [compound 826812], where the note is “Table 2, D3 receptor binding”, the Ki came to 7.29 nM.
Still for that read-out and setting: next, `CC1CCN(C(=O)CCCN2CCN(c3csc4cc(C(F)(F)F)ccc34)CC2)CC1` [compound 826814]: 10.3 nM.
Regarding `CCOC(=O)C1CCN(C(=O)CCCN2CCN(c3csc4cc(C(F)(F)F)ccc34)CC2)CC1` [compound 826811], the Ki was found to be 40.4 nM.
The same measure, in the same setting: next, `O=C(CCCN1CCN(c2csc3cc(F)ccc23)CC1)N1CCCC1` [compound 826859]: 3.53 nM; `O=C(CCCN1CCN(c2csc3cc(C(F)(F)F)ccc23)CC1)NC1CCCC1` [compound 826820]: 52.8 nM.
On the same count and under the same terms, next, `CN(C(=O)CCCN1CCN(c2csc3cc(C(F)(F)F)ccc23)CC1)C1CCCCC1` [compound 826808]: 17.4 nM.
